Experimental findings from publication doi:10.1101/2023.04.09.536153v2, “Reinstating targeted protein degradation with DCAF1 PROTACs in CRBN PROTAC resistant settings” (biorxiv, 2023) are described below.

Assay [1] addresses T1, BTK kinase domain (389-659) (Homo sapiens, UniProt Q06187).
T1 construct: kinase domain 389-659; His-PreScission (with or without Avi) construct, Sf9 cells
The assay can be described thus: kinase inhibition, Caliper mobility shift. It counts as biochemical. Conditions: 0.047 mM ATP, 0.002 mM peptide, pH 7.5, 32 °C, 60 min. An excerpt: kinase inhibition, Caliper mobility shift on BTK kinase domain (389-659) | weaker affinity for BTK of the DBt-6 and DBt-8 was additionally corroborated by enzymatic inhibition

A further assay deals with T2, BTK-NanoLuc (Homo sapiens, UniProt Q06187).
T2 construct: full-length BTK fused to NanoLuc (pLenti6 BTK-Nanoluc), transiently expressed in HEK293-A cells
The experiment in a line: NanoBRET tracer displacement. It counts as cell-based. Conditions: digitonin-permeabilized cells, 0.5 µM Tracer-05, 2 h; ATP site.

The target of assay [2] is T3, DCAF1(1073-1399)_E1398S (WDR domain, Avi/His-tagged) (Homo sapiens, UniProt Q9Y4B6, E1398S).
T3 construct: WDR (WD40) domain 1073-1399 with E1398S; Avi and His tags (N-terminal Avi, C-terminal His for SPR; C-terminal Avi-His for TR-FRET), biotinylated by BirA; Sf9 cells
The experiment in a line: TR-FRET competition with bodipy ligand. It counts as binding. The note with it: 30 mM phosphate pH 7.4, 140 mM NaCl, 22 °C, no BTK added.

Assay [3] has as its target T3, DCAF1(1073-1399)_E1398S (WDR domain, Avi/His-tagged). The assay can be described thus: fluorescence polarization. It counts as binding. (In general: Fluorescence polarisation rises when a labelled molecule tumbles more slowly, as on binding a larger partner.)

Like-named read-outs stand apart in the source and are kept apart here.

T3 sequence (Q9Y4B6 1073-1399 E1398S): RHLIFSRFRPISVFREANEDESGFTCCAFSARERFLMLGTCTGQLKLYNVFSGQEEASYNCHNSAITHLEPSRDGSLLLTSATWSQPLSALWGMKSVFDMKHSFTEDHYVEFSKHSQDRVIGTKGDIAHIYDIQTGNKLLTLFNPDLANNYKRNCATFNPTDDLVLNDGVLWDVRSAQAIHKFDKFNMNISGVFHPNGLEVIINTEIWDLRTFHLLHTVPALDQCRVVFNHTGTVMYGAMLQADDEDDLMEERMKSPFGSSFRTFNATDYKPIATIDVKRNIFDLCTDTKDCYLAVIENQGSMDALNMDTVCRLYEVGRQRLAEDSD
T2 sequence (Q06187 2-659): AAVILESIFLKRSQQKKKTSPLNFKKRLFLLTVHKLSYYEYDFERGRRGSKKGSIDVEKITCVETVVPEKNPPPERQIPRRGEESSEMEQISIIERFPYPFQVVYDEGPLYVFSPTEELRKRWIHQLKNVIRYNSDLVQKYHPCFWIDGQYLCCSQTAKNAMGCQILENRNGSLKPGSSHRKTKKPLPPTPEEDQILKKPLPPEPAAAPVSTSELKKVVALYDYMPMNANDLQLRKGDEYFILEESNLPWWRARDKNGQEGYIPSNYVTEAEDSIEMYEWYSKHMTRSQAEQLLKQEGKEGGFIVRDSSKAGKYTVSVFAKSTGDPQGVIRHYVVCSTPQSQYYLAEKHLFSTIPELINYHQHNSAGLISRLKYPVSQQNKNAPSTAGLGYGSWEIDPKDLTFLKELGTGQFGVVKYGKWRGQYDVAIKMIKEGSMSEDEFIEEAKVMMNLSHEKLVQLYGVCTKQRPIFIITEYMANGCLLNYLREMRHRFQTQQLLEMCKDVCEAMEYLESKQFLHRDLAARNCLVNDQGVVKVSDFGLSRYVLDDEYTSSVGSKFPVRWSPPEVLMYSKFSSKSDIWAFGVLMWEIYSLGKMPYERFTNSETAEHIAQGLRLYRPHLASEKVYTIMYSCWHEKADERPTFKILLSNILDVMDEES
T1 sequence (Q06187 389-659): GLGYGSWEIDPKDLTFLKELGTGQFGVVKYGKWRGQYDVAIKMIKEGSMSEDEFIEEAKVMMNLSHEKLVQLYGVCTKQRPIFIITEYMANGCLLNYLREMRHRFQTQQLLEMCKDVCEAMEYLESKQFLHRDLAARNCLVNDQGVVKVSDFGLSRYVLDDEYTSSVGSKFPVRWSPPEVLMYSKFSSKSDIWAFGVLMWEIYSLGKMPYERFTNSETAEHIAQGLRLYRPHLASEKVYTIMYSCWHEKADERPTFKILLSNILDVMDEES

As for `Cc1c(NC(=O)c2ccc(C(C)(C)O)cc2F)cc(F)cc1-c1ncnc2[nH]c(-c3ccc(CNCCOCCOCC(=O)N4CCCC(C(=O)N5CCN(c6ccc7c(NCCN)nc(C8(c9ccc(Cl)cc9)CCCCC8)nc7c6)CC5)C4)cc3)cc12` (centres unmarked) [DBt-6], the IC50 in assay [1] came out at 510 nM; on BTK-NanoLuc it was 2350 nM; in assay [2] (read-out: IC50), 56 ± 37 nM. In the case of `Cc1cc(C)n2c1C=C1C=CC(CCC(=O)N3CCN(c4ccc5c(NCCN)nc(C(C)(C)c6ccc(Cl)cc6)nc5c4)CC3)=[N+]1[B-]2(F)F` [bodipy labelled ligand], in assay [3], the Kd was 69 ± 6 nM. As to `CC(=O)N1CCN(c2ccc3c(NCCN)nc(C4(c5ccc(Cl)cc5)CCCCC4)nc3c2)CC1` [compound 13, VHF543], in assay [2], the IC50 result was “IC50 determined by DCAF1 TR-FRET for selected DCAF1 binders”.

The term IC50 denotes the concentration needed to halve the response being measured. Usually Kd stands for the constant that tells how readily two partners part at equilibrium.
